Data from PubChem BioAssay AID1259407 (Chemical Carcinogenesis Research Information System (CCRIS), 2018).
The source made the active and inactive calls. The rule behind the calls is not given here.

Test system: CCRIS mutagenicity, Ames/micronucleus/aberration tests
Test: CCRIS mutagenicity studies

In the case of `Cc1ccccc1N`, the mutagenic call (End Point: IN VIVO MICRONUCLEUS, Test System: HEPATOCYTES, Species: RAT, Strain/Sex: FISHER 344 OR SD/MALE, Route: ORAL OR IP) is reported as “inactive; negative”, the mutagenic call (End Point: IN VIVO MICRONUCLEUS, Test System: PERIPHERAL BLOOD RETICULOCYTES, Species: RAT, Strain/Sex: FISHER 344 OR SD/MALE, Route: ORAL OR IP) is reported as “active; positive” and the mutagenic call (Test System: AMES SALMONELLA TYPHIMURIUM, Strain/Indicator: TA97, Metabolic Activation: HAMSTER LIVER S-9, AROCLOR 1254 (10 OR 30%), Method: PREINCUBATION) is reported as “inactive; negative”. For the same compound, the mutagenic call (Test System: AMES SALMONELLA TYPHIMURIUM, Strain/Indicator: TA97, Metabolic Activation: NONE, Method: PREINCUBATION) was “inactive; negative”, the mutagenic call (Test System: AMES SALMONELLA TYPHIMURIUM, Strain/Indicator: TA97, Metabolic Activation: NONE, Method: STANDARD PLATE) was “inactive; negative” and the mutagenic call (Test System: AMES SALMONELLA TYPHIMURIUM, Strain/Indicator: TA97, Metabolic Activation: RAT LIVER S-9, AROCLOR 1254 (10 OR 30%), Method: PREINCUBATION) was “inactive; negative”. For the same compound, the mutagenic call (Test System: AMES SALMONELLA TYPHIMURIUM, Strain/Indicator: TA97, Metabolic Activation: RAT, LIVER, S-9, PHENOBARBITAL AND 5,6-BENZOFLAVONE, Method: PREINCUBATION) was “inactive; negative”, the mutagenic call (Test System: AMES SALMONELLA TYPHIMURIUM, Strain/Indicator: TA97, Metabolic Activation: S-9, Method: STANDARD PLATE) was “inactive; negative” and the mutagenic call (Test System: AMES SALMONELLA TYPHIMURIUM, Strain/Indicator: TA98, Metabolic Activation: HAMSTER LIVER S-9, AROCLOR 1254 (10 OR 30%), Method: PREINCUBATION) was “inactive; negative”. The mutagenic call (Test System: AMES SALMONELLA TYPHIMURIUM, Strain/Indicator: TA98, Metabolic Activation: HAMSTER, LIVER, S-9, AROCLOR 1254 (10%), Method: PREINCUBATION) was “inactive; negative”, the mutagenic call (Test System: AMES SALMONELLA TYPHIMURIUM, Strain/Indicator: TA98, Metabolic Activation: HAMSTER, LIVER, S-9, AROCLOR 1254 (30%), Method: PREINCUBATION) was “inactive; negative” and the mutagenic call (Test System: AMES SALMONELLA TYPHIMURIUM, Strain/Indicator: TA98, Metabolic Activation: HAMSTER, LIVER, S-9, SODIUM PHENOBARBITAL AND 5,6-BENZOFLAVONE, Method: PREINCUBATION) was “inactive; negative”. For the same compound, the mutagenic call (Test System: AMES SALMONELLA TYPHIMURIUM, Strain/Indicator: TA98, Metabolic Activation: HAMSTER, LIVER, S-9, Method: PREINCUBATION (PRIVAL METHOD)) was “active; positive”, the mutagenic call (Test System: AMES SALMONELLA TYPHIMURIUM, Strain/Indicator: TA98, Metabolic Activation: NONE, Method: PREINCUBATION) was “inactive; negative” and the mutagenic call (Test System: AMES SALMONELLA TYPHIMURIUM, Strain/Indicator: TA98, Metabolic Activation: NONE, Method: STANDARD PLATE) was “inactive; negative”. The mutagenic call (Test System: AMES SALMONELLA TYPHIMURIUM, Strain/Indicator: TA98, Metabolic Activation: RAT LIVER S-9, AROCLOR 1254 (10 OR 30%), Method: PREINCUBATION) was “inactive; negative”, the mutagenic call (Test System: AMES SALMONELLA TYPHIMURIUM, Strain/Indicator: TA98, Metabolic Activation: RAT, LIVER, S-9, AROCLOR 1254 (10%), Method: PREINCUBATION) was “inactive; negative” and the mutagenic call (Test System: AMES SALMONELLA TYPHIMURIUM, Strain/Indicator: TA98, Metabolic Activation: RAT, LIVER, S-9, AROCLOR 1254 (30%), Method: PREINCUBATION) was “inactive; negative”. The mutagenic call (Test System: AMES SALMONELLA TYPHIMURIUM, Strain/Indicator: TA98, Metabolic Activation: RAT, LIVER, S-9, AROCLOR 1254 + 200 UG NORHARMAN, Method: STANDARD PLATE) was “active; positive”, the mutagenic call (Test System: AMES SALMONELLA TYPHIMURIUM, Strain/Indicator: TA98, Metabolic Activation: RAT, LIVER, S-9, AROCLOR 1254, Method: PREINCUBATION) was “inactive; negative” and the mutagenic call (Test System: AMES SALMONELLA TYPHIMURIUM, Strain/Indicator: TA98, Metabolic Activation: RAT, LIVER, S-9, PHENOBARBITAL AND 5,6-BENZOFLAVONE, Method: PREINCUBATION) was “inactive; negative”. For the same compound, the mutagenic call (Test System: AMES SALMONELLA TYPHIMURIUM, Strain/Indicator: TA98, Metabolic Activation: S-9, Method: STANDARD PLATE) was “inactive; negative”, the mutagenic call (Test System: AMES SALMONELLA TYPHIMURIUM, Strain/Indicator: TA100, Metabolic Activation: HAMSTER LIVER S-9, AROCLOR 1254 (10%), Method: PREINCUBATION) was “inactive; negative” and the mutagenic call (Test System: AMES SALMONELLA TYPHIMURIUM, Strain/Indicator: TA100, Metabolic Activation: HAMSTER LIVER S-9, AROCLOR 1254 (30%), Method: PREINCUBATION) was “active; positive”. For the same compound, the mutagenic call (Test System: AMES SALMONELLA TYPHIMURIUM, Strain/Indicator: TA100, Metabolic Activation: HAMSTER, LIVER, S-9, AROCLOR 1254 (10%), Method: PREINCUBATION) was “inactive; negative”, the mutagenic call (Test System: AMES SALMONELLA TYPHIMURIUM, Strain/Indicator: TA100, Metabolic Activation: HAMSTER, LIVER, S-9, AROCLOR 1254 (30%), Method: PREINCUBATION) was “active; positive” and the mutagenic call (Test System: AMES SALMONELLA TYPHIMURIUM, Strain/Indicator: TA100, Metabolic Activation: HAMSTER, LIVER, S-9, SODIUM PHENOBARBITAL AND 5,6-BENZOFLAVONE, Method: PREINCUBATION) was “inactive; negative”. For the same compound, the mutagenic call (Test System: AMES SALMONELLA TYPHIMURIUM, Strain/Indicator: TA100, Metabolic Activation: NONE, Method: PREINCUBATION) was “inactive; negative”, the mutagenic call (Test System: AMES SALMONELLA TYPHIMURIUM, Strain/Indicator: TA100, Metabolic Activation: NONE, Method: STANDARD PLATE) was “inactive; negative” and the mutagenic call (Test System: AMES SALMONELLA TYPHIMURIUM, Strain/Indicator: TA100, Metabolic Activation: RAT LIVER S-9, AROCLOR 1254 (10 OR 30%), Method: PREINCUBATION) was “inactive; negative”. For the same compound, the mutagenic call (Test System: AMES SALMONELLA TYPHIMURIUM, Strain/Indicator: TA100, Metabolic Activation: RAT, LIVER, S-9, AROCLOR 1254 (10%), Method: PREINCUBATION) was “inactive; negative”, the mutagenic call (Test System: AMES SALMONELLA TYPHIMURIUM, Strain/Indicator: TA100, Metabolic Activation: RAT, LIVER, S-9, AROCLOR 1254 (30%), Method: PREINCUBATION) was “inactive; negative” and the mutagenic call (Test System: AMES SALMONELLA TYPHIMURIUM, Strain/Indicator: TA100, Metabolic Activation: RAT, LIVER, S-9, AROCLOR 1254, Method: STANDARD PLATE) was “inactive; negative”. For the same compound, the mutagenic call (Test System: AMES SALMONELLA TYPHIMURIUM, Strain/Indicator: TA100, Metabolic Activation: RAT, LIVER, S-9, PHENOBARBITAL AND 5,6-BENZOFLAVONE, Method: PREINCUBATION) was “inactive; negative”, the mutagenic call (Test System: AMES SALMONELLA TYPHIMURIUM, Strain/Indicator: TA100, Metabolic Activation: S-9, Method: STANDARD PLATE) was “inactive; negative” and the mutagenic call (Test System: AMES SALMONELLA TYPHIMURIUM, Strain/Indicator: TA102, Metabolic Activation: HAMSTER, LIVER, S-9, SODIUM PHENOBARBITAL AND 5,6-BENZOFLAVONE, Method: PREINCUBATION) was “inactive; negative”. For the same compound, the mutagenic call (Test System: AMES SALMONELLA TYPHIMURIUM, Strain/Indicator: TA102, Metabolic Activation: NONE, Method: PREINCUBATION) was “inactive; negative”, the mutagenic call (Test System: AMES SALMONELLA TYPHIMURIUM, Strain/Indicator: TA102, Metabolic Activation: NONE, Method: STANDARD PLATE) was “inactive; negative” and the mutagenic call (Test System: AMES SALMONELLA TYPHIMURIUM, Strain/Indicator: TA102, Metabolic Activation: S-9, Method: STANDARD PLATE) was “inactive; negative”.
